Consider 18 substances from the OligoGym collection.

HELM strings list units from the 5' end as sugar, base in round brackets, then linkage (d deoxyribose, r ribose, m 2'-O-methyl, p phosphodiester). Strings are as the collection lists them; they lack the last nucleoside at the 3' end of the tested compound. [moe] = 2'-O-(2-methoxyethyl) (MOE); [sp] = phosphorothioate linkage; [m5C] = 5-methylcytosine

This data set concerns the target GFAP. Description: mouse, dose not given. The note with it: ASO.
The substance “RNA1{[moe]([m5C])[sp].[moe](T)p.[moe]([m5C])p.[moe](A)p.[moe](G)p.[moe](T)p.d(T)[sp].d(T)[sp].d(T)[sp].d([m5C])[sp].d([m5C])[sp].d(T)[sp].d([m5C])[sp].d([m5C])[sp].d(A)[sp].d(G)[sp].[moe]([m5C])p.[moe](A)[sp].[moe](G)}$$$$ (last 3' nucleoside missing)” yielded a 3 h FOB score of 2 score 0-7. To “RNA1{[moe]([m5C])[sp].[moe](T)p.[moe]([m5C])p.[moe](T)p.[moe](A)[sp].d(T)[sp].d([m5C])[sp].d([m5C])[sp].d([m5C])[sp].d(T)[sp].d([m5C])[sp].d([m5C])[sp].d([m5C])[sp].d(A)[sp].d(G)[sp].[moe]([m5C])p.[moe](A)p.[moe]([m5C])[sp].[moe]([m5C])}$$$$ (last 3' nucleoside missing)” belongs 2 score 0-7. “RNA1{[moe]([m5C])[sp].[moe](T)p.[moe]([m5C])p.[moe](T)p.[moe](G)p.d([m5C])[sp].d([m5C])[sp].d(A)[sp].d(T)[sp].d(T)[sp].d(T)[sp].d(A)[sp].d(T)[sp].d([m5C])[sp].d(T)[sp].[moe](G)p.[moe](T)p.[moe](G)[sp].[moe]([m5C])}$$$$ (last 3' nucleoside missing)” came in with a 3 h FOB score of 0 score 0-7. The substance “RNA1{[moe]([m5C])[sp].[moe](T)p.[moe]([m5C])p.[moe]([m5C])p.[moe](A)[sp].d(T)[sp].d([m5C])[sp].d(T)[sp].d([m5C])[sp].d(T)[sp].d(G)[sp].d(G)[sp].d([m5C])[sp].d(A)[sp].d(A)[sp].[moe]([m5C])p.[moe](A)p.[moe](G)[sp].[moe](T)}$$$$ (last 3' nucleoside missing)” showed a 3 h FOB score of 4 score 0-7. “RNA1{[moe]([m5C])[sp].[moe](T)p.[moe]([m5C])p.[moe]([m5C])p.[moe](T)[sp].d(G)[sp].d(T)[sp].d(T)[sp].d(T)[sp].d([m5C])[sp].d(A)[sp].d(G)[sp].d([m5C])[sp].d(A)[sp].d(T)[sp].[moe]([m5C])p.[moe](T)p.[moe](T)[sp].[moe]([m5C])}$$$$ (last 3' nucleoside missing)” displayed a 3 h FOB score of 2 score 0-7. Take “RNA1{[moe]([m5C])[sp].[moe]([m5C])p.[moe](A)p.[moe](G)p.[moe](T)[sp].d(G)[sp].d(T)[sp].d([m5C])[sp].d(T)[sp].d(T)[sp].d([m5C])[sp].d(A)[sp].d([m5C])[sp].d(T)[sp].d(T)[sp].[moe](T)p.[moe](G)p.[moe]([m5C])[sp].[moe](T)}$$$$ (last 3' nucleoside missing)”: the 3 h FOB score amounted to 0 score 0-7.

In turn, “RNA1{[moe]([m5C])[sp].[moe]([m5C])p.[moe](A)p.[moe](G)p.[moe](T)[sp].d(G)[sp].d([m5C])[sp].d([m5C])[sp].d([m5C])[sp].d(T)[sp].d(T)[sp].d([m5C])[sp].d([m5C])[sp].d([m5C])[sp].d(A)[sp].[moe]([m5C])p.[moe](G)p.[moe](A)[sp].[moe](G)}$$$$ (last 3' nucleoside missing)” returned a 3 h FOB score of 2 score 0-7. “RNA1{[moe]([m5C])[sp].[moe]([m5C])p.[moe](A)p.[moe](G)p.[moe](T)p.d(G)[sp].d(T)[sp].d([m5C])[sp].d(T)[sp].d(T)[sp].d([m5C])[sp].d(A)[sp].d([m5C])[sp].d(T)[sp].d(T)[sp].[moe](T)p.[moe](G)p.[moe]([m5C])[sp].[moe](T)}$$$$ (last 3' nucleoside missing)”: the 3 h FOB score is 0 score 0-7. “RNA1{[moe]([m5C])[sp].[moe]([m5C])p.[moe](A)p.[moe](T)p.[moe](T)[sp].d(T)[sp].d(A)[sp].d(T)[sp].d([m5C])[sp].d(T)[sp].d(G)[sp].d(T)[sp].d(G)[sp].[moe]([m5C])p.[moe](T)p.[moe](T)[sp].[moe](T)}$$$$ (last 3' nucleoside missing)” gave a 3 h FOB score of 4 score 0-7. The substance “RNA1{[moe]([m5C])[sp].[moe]([m5C])p.[moe](A)p.[moe](T)p.[moe](T)[sp].d(T)[sp].d(A)[sp].d(T)[sp].d([m5C])[sp].d(T)[sp].d(G)[sp].d(T)[sp].d(G)[sp].d([m5C])[sp].d(T)[sp].[moe](T)p.[moe](T)p.[moe](A)[sp].[moe](G)}$$$$ (last 3' nucleoside missing)” came in with a 3 h FOB score of 6 score 0-7.

Regarding “RNA1{[moe]([m5C])[sp].[moe]([m5C])p.[moe](T)p.[moe](G)p.[moe](T)p.[moe](G)p.d(A)[sp].d([m5C])[sp].d(T)[sp].d(A)[sp].d(T)[sp].d([m5C])[sp].d(T)[sp].d(A)[sp].d(G)[sp].d(G)[sp].[moe](A)p.[moe](T)[sp].[moe](T)}$$$$ (last 3' nucleoside missing)”, the 3 h FOB score stood at 1 score 0-7. The substance “RNA1{[moe]([m5C])[sp].[moe]([m5C])p.[moe](T)p.[moe](G)p.[moe](T)p.d(G)[sp].d(A)[sp].d([m5C])[sp].d(T)[sp].d(A)[sp].d(T)[sp].d([m5C])[sp].d(T)[sp].d(A)[sp].d(G)[sp].[moe](G)p.[moe](A)p.[moe](T)[sp].[moe](T)}$$$$ (last 3' nucleoside missing)” gave a 3 h FOB score of 2 score 0-7. With “RNA1{[moe]([m5C])[sp].[moe]([m5C])p.[moe](T)p.[moe](T)p.[moe](G)p.d(T)[sp].d(G)[sp].d(A)[sp].d(T)[sp].d(T)[sp].d(T)[sp].d(T)[sp].d([m5C])[sp].d([m5C])[sp].d([m5C])[sp].[moe]([m5C])p.[moe](G)p.[moe](T)[sp].[moe]([m5C])}$$$$ (last 3' nucleoside missing)”, the 3 h FOB score was 0 score 0-7. As for “RNA1{[moe]([m5C])[sp].[moe]([m5C])p.[moe](T)p.[moe](T)p.d(G)[sp].d(T)[sp].d(G)[sp].d(A)[sp].d(T)[sp].d(T)[sp].d(T)[sp].d(T)[sp].d([m5C])[sp].d([m5C])[sp].[moe]([m5C])p.[moe]([m5C])p.[moe](G)p.[moe](T)[sp].[moe]([m5C])}$$$$ (last 3' nucleoside missing)”, the 3 h FOB score was found to be 1 score 0-7. “RNA1{[moe]([m5C])[sp].[moe]([m5C])p.[moe]([m5C])p.[moe](T)p.[moe]([m5C])[sp].d(T)[sp].d(T)[sp].d([m5C])[sp].d([m5C])[sp].d(T)[sp].d([m5C])[sp].d([m5C])[sp].d(A)[sp].d(G)[sp].d([m5C])[sp].[moe]([m5C])p.[moe](G)p.[moe]([m5C])[sp].[moe](G)}$$$$ (last 3' nucleoside missing)” returned a 3 h FOB score of 5 score 0-7. To “RNA1{[moe]([m5C])[sp].[moe]([m5C])p.[moe]([m5C])p.[moe]([m5C])p.[moe](T)[sp].d(T)[sp].d(T)[sp].d([m5C])[sp].d(T)[sp].d([m5C])[sp].d(T)[sp].d([m5C])[sp].d([m5C])[sp].d(T)[sp].d(G)[sp].[moe](T)p.[moe](T)p.[moe](T)[sp].[moe]([m5C])}$$$$ (last 3' nucleoside missing)” belongs 2 score 0-7; to “RNA1{[moe]([m5C])[sp].[moe]([m5C])p.[moe]([m5C])p.[moe]([m5C])p.[moe](T)[sp].d([m5C])[sp].d(T)[sp].d(T)[sp].d([m5C])[sp].d([m5C])[sp].d(T)[sp].d([m5C])[sp].d([m5C])[sp].d(A)[sp].d(G)[sp].[moe]([m5C])p.[moe]([m5C])p.[moe](G)[sp].[moe]([m5C])}$$$$ (last 3' nucleoside missing)”, 3 score 0-7; to “RNA1{[moe]([m5C])[sp].[moe]([m5C])p.[moe]([m5C])p.[moe]([m5C])p.[moe]([m5C])[sp].d(T)[sp].d([m5C])[sp].d(T)[sp].d(A)[sp].d(T)[sp].d([m5C])[sp].d([m5C])[sp].d([m5C])[sp].d(T)[sp].d([m5C])[sp].[moe]([m5C])p.[moe]([m5C])p.[moe](A)[sp].[moe](G)}$$$$ (last 3' nucleoside missing)”, 0 score 0-7.
